Laboratory results reported in US20220289679A1, “HETEROCYCLIC COMPOUND” (Takeda Pharmaceutical Company Limited, priority 2019, published 2022).

Molecular target: T1, human GCS (glucosylceramide synthase) (Homo sapiens, UniProt Q16739)
T1 construct: made in house; host or cells: Expi293F cells (transient expression; microsome fraction)
T1 sequence (Q16739 1-394): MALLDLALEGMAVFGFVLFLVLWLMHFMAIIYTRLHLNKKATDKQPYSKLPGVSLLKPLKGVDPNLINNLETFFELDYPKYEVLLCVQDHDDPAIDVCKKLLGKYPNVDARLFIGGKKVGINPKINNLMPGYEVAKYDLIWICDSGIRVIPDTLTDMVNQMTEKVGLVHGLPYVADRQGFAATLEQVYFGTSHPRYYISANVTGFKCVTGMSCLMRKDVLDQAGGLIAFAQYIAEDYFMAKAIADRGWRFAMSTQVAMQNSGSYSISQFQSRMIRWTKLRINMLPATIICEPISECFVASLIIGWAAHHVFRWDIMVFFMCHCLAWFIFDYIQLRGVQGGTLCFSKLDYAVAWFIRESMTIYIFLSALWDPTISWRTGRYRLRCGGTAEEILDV
Experiment: Glucosylceramide Synthase (GCS) Assay
Type: biochemical
Conditions: test compound 10 μM; microsome fraction of Expi293F cells expressing human GCS; 1.7 μM UDP-glucose, 3 μM C8 ceramide; room temperature 60 min; C8 glucosylceramide by Rapidfire MS/MS; read-out: GCS enzyme inhibitory rate at 10 μM (%)
Summary of the method: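 Enzyme source was a microsome fraction from Expi293F cells transiently expressing human GCS. Reaction ran 60 min at room temperature in 20 mM Tris pH 7.5 with 1.7 μM UDP-glucose (Km) and 3 μM liposomal C8 ceramide, compound at 10 μM final. C8 glucosylceramide quantified by RapidFire MS/MS; inhibition scaled between enzyme-free and DMSO controls.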

Row | SMILES | inhibition at 10 µM [%]
1 | O=C(Nc1ccc(C(O)(C(F)F)C(F)F)cc1)c1cn(C(F)F)nc(-c2ccccc2OCC(F)F)c1=O [Example 163, 6-[2-(2,2-difluoroethoxy)phenyl]-2-(difluoromethyl)-5-oxo-N-[4-(1,1,3,3-tetrafluoro-2-hydroxypropan-2-yl)phenyl]-2,5-dihydropyridazine-4-carboxamide] | 100
2 | Cn1cc(C(=O)Nc2ccc(OCC(C)(C)O)cc2)c(=O)c(-c2ccccc2OCC(F)F)n1 [Example 164, 6-[2-(2,2-difluoroethoxy)phenyl]-N-[4-(2-hydroxy-2-methylpropoxy)phenyl]-2-methyl-5-oxo-2,5-dihydropyridazine-4-carboxamide] | 94
3 | CC(C)(O)COc1ccc(NC(=O)c2cn(C(F)F)nc(-c3ccccc3OCC(F)F)c2=O)cc1 [Example 165, 6-[2-(2,2-difluoroethoxy)phenyl]-2-(difluoromethyl)-N-[4-(2-hydroxy-2-methylpropoxy)phenyl]-5-oxo-2,5-dihydropyridazine-4-carboxamide] | 98
4 | Cn1cc(C(=O)Nc2ccc(C(C)(C)O)cc2)c(=O)c(-c2ccccc2OCC(F)(F)F)n1 [Example 166, N-[4-(2-hydroxypropan-2-yl)phenyl]-2-methyl-5-oxo-6-[2-(2,2,2-trifluoroethoxy)pheny]-2,5-dihydropyridazine-4-carboxamide] | 100
5 | CC(C)(O)Cn1cc(C(=O)Nc2ccc(OCC(F)(F)F)cc2)c(=O)c(-c2ccccc2OCC(F)F)n1 [Example 168, 6-[2-(2,2-difluoroethoxy)phenyl]-2-(2-hydroxy-2-methylpropyl)-5-oxo-N-[4-(2,2,2-trifluoroethoxy)phenyl]-2,5-dihydropyridazine-4-carboxamide] | 96
6 | CC(C)(O)c1ccc(NC(=O)c2cn(C3CC3)nc(-c3ccccc3OCC(F)F)c2=O)cc1 [Example 169, 2-cyclopropyl-6-[2-(2,2-difluoroethoxy)phenyl]-N-[4-(2-hydroxypropan-2-yl)phenyl]-5-oxo-2,5-dihydropyridazine-4-carboxamide] | 100
7 | CCOC(=O)c1ccc(NC(=O)c2cc(C)nn(-c3ccccc3OCC(F)F)c2=O)s1 [Example 170, ethyl 5-({2-[2-(2,2-difluoroethoxy)phenyl]-6-methyl-3-oxo-2,3-dihydropyridazine-4-carbonyl}amino)thiophene-2-carboxylate] | 65
8 | Cn1cc(C(=O)Nc2ccc(C(C)(C)C#N)cc2)c(=O)c(-c2ccccc2OCC(F)F)n1 [Example 172, N-[4-(2-cyanopropan-2-yl)phenyl]-6-[2-(2,2-difluoroethoxy)phenyl]-2-methyl-5-oxo-2,5-dihydropyridazine-4-carboxamide] | 100
9 | CC(C)(O)Cn1cc(C(=O)Nc2ccc(OC(F)F)cc2)c(=O)c(-c2ccccc2OCC(F)F)n1 [Example 173, 6-[2-(2,2-difluoroethoxy)phenyl]-N-[4-(difluoromethoxy)phenyl]-2-(2-hydroxy-2-methylpropyl)-5-oxo-2,5-dihydropyridazine-4-carboxamide] | 95
10 | CC(C)(O)Cn1cc(C(=O)Nc2ccc(C(C)(C)O)cc2)c(=O)c(-c2ccccc2OCC(F)F)n1 [Example 174, 6-[2-(2,2-difluoroethoxy)phenyl]-2-(2-hydroxy-2-methylpropyl)-N-[4-(2-hydroxypropan-2-yl)phenyl]-5-oxo-2,5-dihydropyridazine-4-carboxamide] | 91
11 | O=C(Nc1ccc(C(O)(C(F)F)C(F)F)cc1)c1cn(CC2COC2)nc(-c2ccccc2OCC(F)F)c1=O [Example 175, 6-[2-(2,2-difluoroethoxy)phenyl]-2-[(oxetan-3-yl)methyl]-5-oxo-N-[4-(1,1,3,3-tetrafluoro-2-hydroxypropan-2-yl)phenyl]-2,5-dihydropyridazine-4-carboxamide] | 100
12 | Cn1cc(C(=O)Nc2ccc(C(O)(C(F)F)C(F)F)nc2)c(=O)c(-c2ccccc2OCC(F)F)n1 [Example 176, 6-[2-(2,2-difluoroethoxy)phenyl]-2-methyl-5-oxo-N-[6-(1,1,3,3-tetrafluoro-2-hydroxypropan-2-yl)pyridin-3-yl]-2,5-dihydropyridazine-4-carboxamide] | 100
13 | O=C(Nc1ccc(C(O)(C(F)F)C(F)F)nc1)c1cn(C(F)F)nc(-c2ccccc2OCC(F)F)c1=O [Example 177, 6-[2-(2,2-difluoroethoxy)phenyl]-2-(difluoromethyl)-5-oxo-N-[6-(1,1,3,3-tetrafluoro-2-hydroxypropan-2-yl)pyridin-3-yl]-2,5-dihydropyridazine-4-carboxamide] | 100
14 | CC(C)(O)Cn1cc(C(=O)Nc2ccc(C(O)(C(F)F)C(F)F)nc2)c(=O)c(-c2ccccc2OCC(F)F)n1 [Example 178, 6-[2-(2,2-difluoroethoxy)phenyl]-2-(2-hydroxy-2-methylpropyl)-5-oxo-N-[6-(1,1,3,3-tetrafluoro-2-hydroxypropan-2-yl)pyridin-3-yl]-2,5-dihydropyridazine-4-carboxamide] | 97
15 | CC(C)(O)c1ccc(NC(=O)c2cn(CC(F)F)nc(-c3ccccc3OCC(F)F)c2=O)cc1 [Example 179, 6-[2-(2,2-difluoroethoxy)phenyl]-2-(2,2-difluoroethyl)-N-[4-(2-hydroxypropan-2-yl)phenyl]-5-oxo-2,5-dihydropyridazine-4-carboxamide] | 99
16 | CC(C)(O)c1ccc(NC(=O)c2cn(CC3COC3)nc(-c3ccccc3OCC(F)F)c2=O)cc1 [Example 180, 6-[2-(2,2-difluoroethoxy)phenyl]-N-[4-(2-hydroxypropan-2-yl)phenyl]-2-[(oxetan-3-yl)methyl]-5-oxo-2,5-dihydropyridazine-4-carboxamide] | 96
17 | O=C(Nc1ccc(F)cc1F)c1cn(CC2COC2)nc(-c2ccccc2OCC(F)F)c1=O [Example 181, 6-[2-(2,2-difluoroethoxy)phenyl]-N-(2,4-difluorophenyl)-2-[(oxetan-3-yl)methyl]-5-oxo-2,5-dihydropyridazine-4-carboxamide] | 97
18 | O=C(Nc1ccc(F)cc1F)c1cn(C2COC2)nc(-c2ccccc2OCC(F)F)c1=O [Example 182, 6-[2-(2,2-difluoroethoxy)phenyl]-N-(2,4-difluorophenyl)-2-(oxetan-3-yl)-5-oxo-2,5-dihydropyridazine-4-carboxamide] | 90
19 | CC(C)(O)c1ccc(NC(=O)c2cn(C3COC3)nc(-c3ccccc3OCC(F)F)c2=O)cc1 [Example 183] | 100
20 | O=C(Nc1ccc(C(O)(C(F)F)C(F)F)cc1)c1cn(C2COC2)nc(-c2ccccc2OCC(F)F)c1=O [Example 184, 6-[2-(2,2-difluoroethoxy)phenyl]-2-(oxetan-3-yl)-5-oxo-N-[4-(1,1,3,3-tetrafluoro-2-hydroxypropan-2-yl)phenyl]-2,5-dihydropyridazine-4-carboxamide] | 100
21 | Cn1cc(C(=O)Nc2ccc(C(F)F)cc2)c(=O)c(-c2ccccc2OCC(F)F)n1 [Example 185, 6-[2-(2,2-difluoroethoxy)phenyl]-N-[4-(difluoromethyl)phenyl]-2-methyl-5-oxo-2,5-dihydropyridazine-4-carboxamide] | 79
22 | O=C(Nc1ccc(C(O)(C(F)F)C(F)F)nc1)c1cn(CC(F)F)nc(-c2ccccc2OCC(F)F)c1=O [Example 186, 6-[2-(2,2-difluoroethoxy)phenyl]-2-(2,2-difluoroethyl)-5-oxo-N-[6-(1,1,3,3-tetrafluoro-2-hydroxypropan-2-yl)pyridin-3-yl]-2,5-dihydropyridazine-4-carboxamide] | 100
23 | O=C(Nc1ccc(C(O)(C(F)F)C(F)F)nc1)c1cn(C2COC2)nc(-c2ccccc2OCC(F)F)c1=O [Example 187, 6-[2-(2,2-difluoroethoxy)phenyl]-2-(oxetan-3-yl)-5-oxo-N-[6-(1,1,3,3-tetrafluoro-2-hydroxypropan-2-yl)pyridin-3-yl]-2,5-dihydropyridazine-4-carboxamide] | 100
24 | O=C(Nc1ccc(C(O)(C(F)F)C(F)F)nc1)c1cn(CC2COC2)nc(-c2ccccc2OCC(F)F)c1=O [Example 188, 6-[2-(2,2-difluoroethoxy)phenyl]-2-[(oxetan-3-yl)methyl]-5-oxo-N-[6-(1,1,3,3-tetrafluoro-2-hydroxypropan-2-yl)pyridin-3-yl]-2,5-dihydropyridazine-4-carboxamide] | 99
25 | O=C(Nc1ccc(C(O)(C(F)F)C(F)F)nc1)c1cn(C2CC2)nc(-c2ccccc2OCC(F)F)c1=O [Example 189, 2-cyclopropyl-6-[2-(2,2-difluoroethoxy)phenyl]-5-oxo-N-[6-(1,1,3,3-tetrafluoro-2-hydroxypropan-2-yl)pyridin-3-yl]-2,5-dihydropyridazine-4-carboxamide] | 100
26 | Cn1cc(C(=O)Nc2ccc(C(C)(C)C#N)cc2)c(=O)c(-c2ccccc2OCC(F)(F)F)n1 [Example 190, N-[4-(2-cyanopropan-2-yl)phenyl]-2-methyl-5-oxo-6-[2-(2,2,2-trifluoroethoxy)phenyl]-2,5-dihydropyridazine-4-carboxamide] | 100
